Experimental data from ChEMBL document CHEMBL5244230, “Artemisinin-derived hybrids and their anticancer activity” (Eur J Med Chem, 2020).

What was measured:
[1] = system: TRAMP-C1A; assay: Antiproliferative activity against mouse TRAMP-C1A cells; assay type: functional, cell-based
[2] = system: C2D cell line; assay: Antiproliferative activity against mouse C2D cell line; assay type: functional, cell-based
[3] = system: C2G cell line; assay: Antiproliferative activity against mouse C2G cell line; assay type: functional, cell-based
[4] = system: TRAMP-C2H; assay: Antiproliferative activity against mouse TRAMP-C2H cells; assay type: functional, cell-based
[5] = Antiproliferative activity against human Renal carcinoma cell; assay type: functional, cell-based
[6] = system: Ovarian cancer cell line; assay: Antiproliferative activity against human Ovarian cancer cell line; assay type: functional, cell-based
[7] = system: Melanoma cell line; assay: Antiproliferative activity against human Melanoma cell line; assay type: functional, cell-based
[8] = Antiproliferative activity against human leukaemia cell line; assay type: functional, cell-based
[9] = system: Breast carcinoma cell; assay: Antiproliferative activity against human Breast cancer cell line; assay type: functional, cell-based
[10] = system: leukaemia cell line; assay: Potency index, ratio of artemisinin IC50 to test compound IC50 for antiproliferative activity against human leukaemia cell line assessed as inhibition of cell growth; assay type: functional
[11] = system: Melanoma cell line; assay: Potency index, ratio of artemisinin IC50 to test compound IC50 for antiproliferative activity against human Melanoma cell line assessed as inhibition of cell growth; assay type: functional
[12] = system: Ovarian cancer cell line; assay: Potency index, ratio of artemisinin IC50 to test compound IC50 for antiproliferative activity against human Ovarian cancer cell line assessed as inhibition of cell growth; assay type: functional
[13] = system: Prostatic carcinoma cell; assay: Potency index, ratio of artemisinin IC50 to test compound IC50 for antiproliferative activity against human Prostatic carcinoma cell assessed as inhibition of cell growth; assay type: functional
[14] = system: Breast carcinoma cell; assay: Potency index, ratio of artemisinin IC50 to test compound IC50 for antiproliferative activity against human Breast carcinoma cell assessed as inhibition of cell growth; assay type: functional
[15] = system: P388/ADR; assay: Potency index, ratio of doxorubicin IC50 to test compound IC50 for antiproliferative activity against mouse P388/ADR cells assessed as reduction in cell viability measured after 72 hrs; assay type: functional

Row | SMILES | IC50 [1] [nM] | IC50 [2] [nM] | IC50 [3] [nM] | IC50 [4] [nM] | IC50 [5] [nM] | IC50 [6] [nM] | IC50 [7] [nM] | IC50 [8] [nM] | IC50 [9] [nM] | Ratio IC50 [10] | Ratio IC50 [11] | Ratio IC50 [12] | Ratio IC50 [13] | Ratio IC50 [14] | Ratio IC50 [15]
1 | C[C@H]1[C@@H](OC(COC(=O)c2cc[n+]([O-])cc2)C[C@H]2O[C@@H]3O[C@@]4(C)CC[C@H]5[C@H](C)CC[C@@H]([C@H]2C)[C@@]35OO4)O[C@@H]2O[C@@]3(C)CC[C@H]4[C@H](C)CC[C@@H]1[C@@]24OO3 (stereo not given in full) | 36.1 | 36.1 | 36.1 | 36.1 |  |  |  |  |  |  |  |  |  |  | 
2 | C[C@H]1[C@@H](OC/C(=N\O)O[C@H]2O[C@@H]3O[C@@]4(C)CC[C@H]5[C@H](C)CC[C@@H]([C@H]2C)[C@@]35OO4)O[C@@H]2O[C@@]3(C)CC[C@H]4[C@H](C)CC[C@@H]1[C@@]24OO3 |  |  |  |  | 55 | 55 | 55 | 55 | 55 | >=4 | >=4 | >=4 | >=4 | >=4 | >=4
